Read-outs that look alike come from different tables or passages of the source.
Assays:
[1] = Phase 2 study: PK follow-up, plasma obicetrapib concentrations after end of treatment; assay type: in vivo, human
Procedure: The screening period for this study took up to 2-weeks. Afterwards patients were randomized to placebo, 5 mg obicetrapib or 10 mg obicetrapib for an 8-week treatment period. After the treatment period, patients continued for a 4-week safety follow-up and a 15-week PK follow-up.
The primary outcome measure was LDL-C (percent change). Secondary outcome measures included ApoB, Non-HDL-C and HDL-C (percent change). The Intent-to-Treat (ITT) Population included all participants randomized into the study. The Modified ITT (mITT) Population included all participants in the ITT Population who receive at least 1 dose of any study drug and have a baseline value for the LDL-C assessment. The Safety Population included all participants who receive at least 1 dose of any study drug. The mITT Population was the primary population for the efficacy analyses. The primary efficacy analysis of the percent change in LDL-C was performed using a mixed model for repeated measures (MMRM) approach. In order to maintain the overall Type I error rate, the secondary efficacy endpoints were tested sequentially at the 0.05 significance level according to the pre-specified order of hierarchy. All safety endpoints were summarized descriptively. No statistical inference was applied to the safety endpoints. Plasma obicetrapib concentrations were summarized with descriptive statistics based on the […].

[2] = tested on: LDL-C; details: cited from earlier work

Structure (SMILES): CCOC(=O)N1c2ccc(C(F)(F)F)cc2[C@@H](N(Cc2cc(C(F)(F)F)cc(C(F)(F)F)c2)c2ncc(OCCCC(=O)O)cn2)C[C@H]1CC [Obicetrapib, (2R,4S)-4-{[3,5-bis(trifluoromethyl)benzyl]-[5-(3-carboxypropoxy)pyrimidin-2-yl]amino}-2-ethyl-6-trifluoromethyl-3,4-dihydro-2H-quinoline-1-carboxylic acid ethyl ester]
- Plasma obicetrapib levels, median decrease after end-of-treatment ([1]; 5 mg group, 4 weeks after end-of-treatment): 92%
- Plasma obicetrapib levels, median decrease after end-of-treatment ([1]; 5 mg group, 8 weeks after end-of-treatment): 98%
- Plasma obicetrapib levels, median decrease after end-of-treatment ([1]; 5 mg group, 15 weeks after end-of-treatment): 99%
- Plasma obicetrapib levels, median decrease after end-of-treatment ([1]; 10 mg group, 4 weeks after end-of-treatment): 93%
- Plasma obicetrapib levels, median decrease after end-of-treatment ([1]; 10 mg group, 8 weeks after end-of-treatment): 98%
- Plasma obicetrapib levels, median decrease after end-of-treatment ([1]; 10 mg group, 15 weeks after end-of-treatment): 99%
- LDL-C reduction ([2]; 1 mg for 12 weeks, mild dyslipidemia): 27%
- LDL-C reduction ([2]; 2.5 mg for 12 weeks, mild dyslipidemia): 33%
- LDL-C reduction ([2]; 5 mg for 12 weeks, mild dyslipidemia): 45%
- LDL-C reduction ([2]; 10 mg for 12 weeks, mild dyslipidemia): 45%
- LDL-C reduction ([2]; 10 mg obicetrapib plus 10 mg rosuvastatin): 63%
- LDL-C reduction ([2]; 10 mg obicetrapib plus 20 mg atorvastatin): 68%
- incremental LDL-C reduction compared with statin monotherapy ([2]; daily 10 mg with moderate-intensity statins (20 mg atorvastatin or 10 mg rosuvastatin), 12 weeks): up to 50%

— patent US20230041138A1, “TREATMENT OF HIS HYPORESPONDERS” (NewAmsterdam Pharma B.V. (Dutch Registration No. 55971946), priority 2021, published 2023)
